US7638554B2, “Flavanoids as chemotherapeutic, chemopreventive, and antiangiogenic agents” (SRI International, priority 2002, dated 2009)

Tests used:
[1] = system: ovarian cancer cell line SK-OV-3; test: Growth inhibition, sulforhodamine-based protein determination, SK-OV-3; type: cell-based; settings: Homo sapiens, SK-OV-3, 144 h; continuous exposure six days
Protocol: (§1) The novel compound SR 13179 was assayed for its ability to inhibit growth in several cancer cell lines. The cell lines studied included breast cancer cell line MCF-7 (ER+); prostate cancer cell lines LNCaP, PC3, and DU145; lung cancer cell line A427; ovarian cancer cell lines IGROV1, OVCAR-3, OVCAR-4, OVCAR-5, OVCAR-8, and SK-OV-3; and colon cancer cell lines COLO 205, HCC-2998, HCT-116, HCT-15, HT29, KM12, AND SW-620.
(§2) The growth assays for the breast cancer cell lines were conducted according to the method of Example 16. For the other cell lines, each assay was conducted with continuous exposure to the test compound at four log concentrations for six days, using a sulforhodamine-based protein determination to measure growth inhibition.

[2] = system: MCF-10CA1a breast cancer cells; test: Boyden-chamber Matrigel invasion/migration assay, MCF-10CA1a; type: cell-based, human
Protocol: Cell Culture. MCF-10CA1a cells were cultured in Dulbecco's Modified Eagle Medium (DMEM) supplemented with 5% bovine serum, 2 mM glutamine and 1 mM non-essential amino acids. MDA-MB231 cells were grown in DMEM supplemented with 5% bovine serum. Cells were routinely maintained in a 5% CO2 incubator at 37° C.
General Procedure for Invasion Assay. MCF 10-CA1a or MDA-MB-231 breast cancer cells were treated with 1 or 5 μM of the compound being tested for 8 h. Cells were removed by trypsinizing and tested for their invasiveness by Boyden-chamber invasion assay. In the in vitro invasion/migration assays, a standard Matrigel-based assay, according to the manufacturer's (Becton-Dickinson) protocol, was used. Rehydrated Matrigel and control inserts were added to Falcon TC companion plates containing human fibronectin (30 μg/ml) as chemoattractant. Cellular suspensions (2×10^4 cells/0.5 ml) were added to individual wells of 24-well chambers (containing either control or Matrigel inserts), and the plates incubated (37° C., 5% CO2) in the presence of the compound being tested or vehicle for an additional 16-18 h. Non-invading or non-migrating cells were removed by scraping the top surfaces of the Matrigel and control inserts, respectively. The invading (or migrating) cells (on the bottom surface) were fixed (3.7% formaldehyde) and stained with Accustain (Sigma). The percent invasion was calculated as mean number of invading cells/the mean number of cells migrating through a control membrane×100.
The in vitro invasion through Matrigel was studied for two human breast cancer lines: MCF-10CA1a, a highly metastatic ER^+ line and MDA-MB-231, an ER^− line. […] At this concentration, SR13179 inhibited invasion of MDA-MB-231 by about 30% (and by 70% at 5 μM). To rule out a cytotoxic effect in the inhibition of invasion, a concurrent cytotoxicity assay was carried out and the number of viable cells was determined by MTT assay. There was less than 5% decrease in MDA-MB-231 cell viability at 5 μM concentration of SR13179 at 22 h. […]

[3] = system: TIMP-1; test: TIMP-1 protein expression, MCF-10-CA1a cells; type: cell-based, human
Description: (§3) Western Blotting. Proteins were separated by gel electrophoresis using 4-12% pre-cast SDS-polyacrylamide gels (Invitrogen, Carlsbad, Calif.) and then electrophoretically transferred onto Hybond™-P membrane (Amersham Biosciences, Piscataway, N.J.). Blots were probed with specific antibodies (Santa Cruz Biotechnology, Inc). The ECL Plus Western Blotting Detection System of Amersham Biosciences (Piscataway, N.J.) and the procedure recommended by the manufacturer was used for the detection of antigens. Protein bands were quantified by analyzing the images obtained using an Alphaimager™ S-3400 (Alpha Innotech Corp., San Leandro, Calif.).
The effects of SR 13179 on the protein expression of TIMP-1, TIMP-2, and membrane-type 1 MMP (MT1-MMP) were studied. SR13179 induced the protein expression of TIMP-2 in a dose- and time-dependent manner. MCF-10-CA1a cells were treated with SR 13179 at 1, 3, or 5 μM concentrations for 48 h, or, alternatively, with […] SR 13179 for 8, 24, or 48 h. Cells were lysed and subjected to Western blotting.
The effect of SR13179 on the extracellular levels of TIMP-2 as well as MMP-2 was also investigated. Treatment of MCF-10CA1a cells with SR13179 at 5 μM concentration caused 5- to 8-fold increase in the secreted level of TIMP-2 and a 2-fold decrease in the extracellular level of MMP-2. […]

[4] = system: MMP-2 (gelatinase); test: Zymography of MMP-2 activity in supernatants of MCF-10-CA1a cultures; type: cell-based, human; settings: 5 μM, 48 h, serum-free medium
Protocol: Zymography. Zymography as used herein is illustrated by the following general procedure. MCF10CA1a cells were grown in 100 mm in diameter tissue culture plates until 90% confluent. The cells were washed once with serum-free medium and placed in serum-free medium for 2 h prior to drug treatment. The candidate agent was added to the plate and the plate was incubated in the 5% CO2 incubator at 37° C. for 16 h. The medium was collected, concentrated and subjected to zymography. In brief, 10 μl of the sample was electrophoresed in 8% polyacrylamide gel containing 0.1% gelatin in the presence of SDS. After electrophoresis, gel was washed two times, 20 min each, in 2.5% Triton X-100 and incubated overnight at 37° C. in a solution containing 50 mM Tris-HCl, pH 8, 5 mM CaCl2, 10 mM ZnCl2 and 0.02% NaN3. The gel was then stained for 30 min with 0.5% Coomassie Brilliant Blue R-250 prepared in 30% methanol/10% acetic acid solution and destained with several washes with water.
The effect of SR 13179 on the activity of MMP-2 (gelatinase) was studied. MCF-10-CA1a cells were treated with 1, 3, and 5 μM SR 13179 in serum-free medium for 48 h. Untreated cells, grown under the same conditions, were used as control. After treatment, supernatants of the cultures were concentrated and subjected to zymography.

[5] = system: colon cancer cell line HT29; test: Growth inhibition, sulforhodamine-based protein determination, HT29; type: cell-based; settings: Homo sapiens, HT-29, 144 h; continuous exposure six days
Protocol: as §1, §2

[6] = system: MMP-9; test: Western blotting of cell-associated MMP-9 protein, MCF-10-CA1a cells; type: cell-based, human; settings: 1, 3, or 5 μM, 48 h
Description: as §3
The effect of SR 13179 on cell-associated MMP-2 and MMP-9 protein levels was studied. MCF-10-CA1a cells were treated with SR 13179 at 1, 3, or 5 μM concentrations for 48 h. Untreated cells were used as control. Proteins were separated by SDS-Polyacrylamide gel electrophoresis and electrophoretically transformed onto Hybond™ P membrane (Amerhsam Biosciences). Blots were probed with specific antibodies (Santa Cruz Biotechnology Inc.).

COc1cc(C2CC(O)c3ccc4ccccc4c3O2)cc(OC)c1OC (centres unmarked) [SR 13179, 2-(3,4,5-trimethoxyphenyl)-3,4-dihydro-2H-benzo[h]chromen-4-ol]
IC50 [1]: 529 nM
Invasion ([2]; 1 μM): 10 % of Control
Migration ([2]; 1 μM): 70 % of Control
inhibition at 1 µM ([2]; Homo sapiens, read-out: inhibition of invasion through Matrigel): 90%
TIMP-1 protein levels [3]: no significant effect
inhibition of MMP-2 activity [4]: > 50%
IC50 [5]: 430 nM
cell-associated MMP-9 protein levels [6]: does not affect
